Measured values published in patent US5166379A, “Synthesis of compounds with biological activity, and methods of use” (Harbor Branch Oceanographic Institution, Inc., priority 1990, dated 1992).
In brackets after ≈: the same amount, converted by molar mass. Like-named read-outs stand apart in the source and are kept apart here.

Legend:
[1] = test system: murine splenocyte suspensions (BALB/c and C57BL/6J mice); assay: Mixed Lymphocyte Reaction (MLR); assay type: cell-based; details: for activity at 0.05 µg/mL / activity at 0.2 µg/mL / activity at 0.8 µg/mL / activity at 3.1 µg/mL / activity at 12.5 µg/mL / activity at 50 µg/mL: Mus musculus, Splenocyte, read-out: % MLR (percentage of positive control)
Description: I. Mixed Lymphocyte Reaction
1. Murine splenocyte suspensions were prepared separately from BALB/c and C57BL/6J mice. […] The cell concentrations were adjusted to 2.5×10^6 cells/ml. Aliquots of each cell population were removed to separate tubes, and the remaining two cell suspensions combined to one tube.
(§1) 2. Serial, log10 dilutions of the pure compound were made in absolute ethanol, and 10 μl of each dilution was added to wells of microtiter test plates, and allowed to dry.
3. A volume of 0.2 ml of the combined splenocyte suspensions was added to triplicate test wells. Positive control wells received combined splenocyte suspensions in the absence of the test compounds. Negative control wells consisted of separate (not mixed) splenocyte suspensions cultured in the absence of the test compounds.
4. Plates were incubated in 5% CO2 at 37° C. for 86 hours.
5. A volume of 0.05 ml of ^3 H-thymidine (20 μCi/ml) was added to each well, and the plates were incubated in 5% CO2 at 37° C. for an additional 5 hours.
6. The contents of each well of the microtiter plates were harvested onto glass fiber filter strips, and the resulting filter discs placed in scintillation vials to which 2.0 ml of scintillation fluid was added.
7. The amount of incorporated ^3 H-thymidine was determined by counting the vials in a liquid scintillation counter.
8. Triplicate counts were averaged, and the data reported as a percentage of the positive control.

P388 cells = assay: Antiproliferative effects against P388 cells (antitumor, MTT); assay type: cell-based; details: for P388 IC50: 48 hour exposure; for IC50: Mus musculus, P388, 48 hour exposure
Description: IV. Antitumor Methodology
To assess the antiproliferative effects against P388 cells, 200 μl cultures (96-well tissue culture plates, Nunc, Denmark) were established at 1×10^5 cells/ml in drug-free medium or medium containing the pure compounds/crude extracts at a final dilution or 1:500 and at various concentrations. Solvent for all dilutions was methanol, which was removed from plates under vacuum. All experimental cultures were initiated in media containing Gentamicin sulfate (50 μg/ml; Schering Corporation, Kenilworth, NJ).
To quantitate the effects of pure compounds/crude extracts on cell proliferation, 75 μl of warm growth medium containing 5 mg/ml MTT was added to each well, cultures were returned to the incubator, and were left undisturbed for 90 minutes. To spectrophotometrically quantitate formation of reduced formazan, plates were centrifuged (900×g, 5 minutes), culture fluids removed by aspiration, and 200 μl of acidified isopropanol (2 ml concentrated HCl/liter isopropanol) added per well. The absorbance of the resulting solutions were measured at 570 nm with a plate reader (MR700 Microplate Reader, Dynatech Laboratories, Chantilly, VA).

[2] = test system: lymphoid cells (murine BALB/c splenocytes); assay: Lymphocyte Viability Assay (LCV); assay type: cell-based
Description: (§2) II. Lymphocyte Viability Assay
(§3) 1. Compounds were similarly tested in parallel with the MLR to determine their toxic effects on lymphoid cells using the lymphocyte viability assay (LCV).
as §1
(§4) 3. Murine splenocyte suspensions were prepared from BALB/c mice. […] The cell concentrations were adjusted to 2.5×10^6 cells/ml.
(§5) 4. A volume of 0.2 ml of the splenocyte suspension was added to replicate test wells. Positive control wells received splenocyte suspensions in the absence of the test compounds.
(§6) 5. Plates were incubated at 37° C. for 86 hours. At the end of the incubation period, a volume of 75 μl of a 2.0 mg/ml solution of MTT was added to each well, and the plates were returned to the incubator for an additional 5 hours.
(§7) 6. The supernatants from each microwell were then removed, and a volume of 200 μl of isopropanol was added and the contents mixed.
(§8) 7. Values were obtained by comparing the optical densities (determined at 570 and 650 nm) of wells containing the test compounds with those of wells containing cells and medium only (positive control). The results are expressed as a percentage of the positive control.
(§9) 8. Replicate counts were averaged, and the data reported as a percentage of the positive control. An LCV value of less than 60% of the positive control is an indication of cytotoxicity of the test compounds for lymphoid cells.

[3] = Lymphocyte Viability Assay (LCV); assay type: cell-based, murine; details: mouse, splenocytes, read-out: % LCV (percentage of positive control)
Description: as §2, §3, §1, §4, §5, §6, §7, §8, §9

SMILES	% MLR (percentage of positive control) ([1]; 0.05 μg/ml) [%]	% MLR (percentage of positive control) ([1]; 0.2 μg/ml) [%]	% MLR (percentage of positive control) ([1]; 0.8 μg/ml) [%]	% MLR (percentage of positive control) ([1]; 3.1 μg/ml) [%]	% MLR (percentage of positive control) ([1]; 12.5 μg/ml) [%]	% MLR (percentage of positive control) ([1]; 50 μg/ml) [%]	P388 IC50 (P388 cells) [µg/mL]	activity at 0.05 µg/mL ([1]; 0.05 μg/ml) [%]	activity at 0.2 µg/mL ([1]; 0.2 μg/ml) [%]	activity at 0.8 µg/mL ([1]; 0.8 μg/ml) [%]	activity at 3.1 µg/mL ([1]; 3.1 μg/ml) [%]	activity at 12.5 µg/mL ([1]; 12.5 μg/ml) [%]	activity at 50 µg/mL ([1]; 50 μg/ml) [%]	IC50 (P388 cells) [µg/mL]	viability ([3]; 0.05 μg/ml) [%]	viability ([3]; 0.2 μg/ml) [%]	viability ([3]; 0.8 μg/ml) [%]	viability ([3]; 3.1 μg/ml) [%]	viability ([3]; 12.5 μg/ml) [%]	viability ([3]; 50 μg/ml) [%]	other results
C#CC(O)C=CCCCCCCCCC (stereo not shown) [CH3 (CH2)8 CH=CH--CHOH--C≡CH]	120	0	0	0	0	0	27.0	–	–	–	–	–	–	–	–	–	–	–	–	–	% LCV (percentage of positive control) ([2]; 0.05 μg/ml): 35%; % LCV (percentage of positive control) ([2]; 0.2 μg/ml): 44%; % LCV (percentage of positive control) ([2]; 0.8 μg/ml): 30%; % LCV (percentage of positive control) ([2]; 3.1 μg/ml): 26%; % LCV (percentage of positive control) ([2]; 12.5 μg/ml): 5%; % LCV (percentage of positive control) ([2]; 50 μg/ml): 0%
C#CC(O)CCCCCCCCCCCCCCCCC (stereo not shown) [CH3 (CH2)16 CHOH--C≡CH]	–	–	–	–	–	–	–	0	0	0	0	0	0	48 (≈ 163 µM)	61	68	39	56	7	2	–
CCCCCCCCCCCCCCC/C=C/C(O)C#N (stereo not shown) [CH3 (CH2)14 CH=CH--CHOH--C≡N]	–	–	–	–	–	–	–	60	89	85	80	0	0	28 (≈ 95.4 µM)	132	135	161	144	77	37	–
C#CC(O)C=CCCCCC (stereo not shown) [CH3 (CH2)4 CH= CH--CHOH--C≡CH]	112	14	82	0	0	0	74.0	–	–	–	–	–	–	–	–	–	–	–	–	–	% LCV (percentage of positive control) ([2]; 0.05 μg/ml): 109%; % LCV (percentage of positive control) ([2]; 0.2 μg/ml): 121%; % LCV (percentage of positive control) ([2]; 0.8 μg/ml): 119%; % LCV (percentage of positive control) ([2]; 3.1 μg/ml): 89%; % LCV (percentage of positive control) ([2]; 12.5 μg/ml): 65%; % LCV (percentage of positive control) ([2]; 50 μg/ml): 7%
CCCCCCCCCCCCCCCC=O [CH3 (CH2)14 CHO]	–	–	–	–	–	–	–	59	94	80	73	36	0	44 (≈ 183 µM)	237	182	161	202	153	132	–
CCCCCCCCCCCCCCC/C=C/C=O [CH3 (CH2)14 CH=CH--CHO]	–	–	–	–	–	–	–	150	105	135	146	0	0	15.1 (≈ 56.7 µM)	130	175	181	186	89	5	–
C#CC(C)(O)/C=C/CCCCCCCCCCCCCCC (stereo not shown) [CH3 (CH2)14 CH=CH--COH(CH3)--C≡CH]	–	–	–	–	–	–	–	152	161	171	115	65	0	67 (≈ 219 µM)	53	107	118	109	54	5	–
C#CC(O)C=CCCCCCCCCCCCCCCCCCCC (stereo not shown) [CH3 (CH2)18 CH=CH--CHOH--C≡CH]	103	103	0	0	0	0	219	–	–	–	–	–	–	–	–	–	–	–	–	–	% LCV (percentage of positive control) ([2]; 0.05 μg/ml): 58%; % LCV (percentage of positive control) ([2]; 0.2 μg/ml): 70%; % LCV (percentage of positive control) ([2]; 0.8 μg/ml): 61%; % LCV (percentage of positive control) ([2]; 3.1 μg/ml): 28%; % LCV (percentage of positive control) ([2]; 12.5 μg/ml): 30%; % LCV (percentage of positive control) ([2]; 50 μg/ml): 39%
CCCCCCCCCCCCCCCCO [CH3 (CH2)14 CH2 OH]	–	–	–	–	–	–	–	136	128	127	137	0	0	9.3 (≈ 38.4 µM)	70	86	37	98	0	0	–
CC#CC(O)/C=C/CCCCCCCCCCCCCCC (stereo not shown) [CH3 (CH2)14 CH=CH--CHOH--C≡C--CH3]	–	–	–	–	–	–	–	137	143	83	0	0	0	200 (≈ 652 µM)	154	107	75	86	67	60	–
